In patent US20150017185A1, “METHOD TO IMPROVE THE IMMUNE FUNCTION OF T CELLS” (UCL BUSINESS PLC, priority 2011, published 2015):

Tests used:
[1] = test system: CD8+ CD45RA/CD27 T cell subsets; experiment: Telomerase activity (TRAP assay) with PDL-1/2 blockade and p38 inhibitor; type: cell-based, human; settings: 4 days anti-CD3 and irradiated autologous APCs
Description: It was next investigated whether p38 or PD-1 signalling were involved in the decreased telomerase activity in EMRA CD8^+ T cells. […] Once again, CD8^+ T cell subsets were stimulated with anti-CD3 and irradiated autologous APCs in the presence of both inhibitors separately or together as in FIG. 4. […] The blockade of PD-1 signalling had no effect on telomerase activity in any of the subsets.
Purified CD8^+ T cell populations (2×10^5 cells) were snap-frozen after stimulation for 4 days with 0.5 μg/ml plate coated anti-CD3 (OKT3) and irradiated APCs. Telomerase activity was determined using the telomeric repeat amplification protocol (TRAP; TRAPeze telomerase detection kit; Chemicon) according to the protocol provided by the manufacturer. The absolute numbers of CD8^+ T cells were enumerated using trypan blue (Sigma). The TRAP assay was performed with samples adjusted to 500 Ki67^+ T cells per reaction to control for the different extents of proliferation in the different subsets after activation.
Signalling through PD-1 on purified total CD8^+ and CD27/CD45RA defined CD8^+ subsets was blocked by adding 10 μg/ml each of anti-PD-L1 (29E.2A3.C6) and anti-PD-L2 (24F.10C12.G12), or 10 μg/ml each of IgG2a (Mg2a-53) or IgG2b (MPC-11) isotype control antibodies (Abcam) at the start of the 4 day stimulation period with anti-CD3 (purified OKT3, 0.5 μg/ml) and irradiated APCs. […]

[2] = test system: CD8+ CD45RA/CD27 T cell subsets; experiment: Proliferation assay (Ki67 staining) with PDL-1/2 blockade and p38 inhibitor; type: cell-based, human; settings: CD8+ T cells at all four stages of differentiation (N, CM, EM, EMRA); 4 days anti-CD3 and irradiated autologous APCs; 10 μg/ml PDL1/2 blocking antibodies, 500 nM BIRB796; 4 donors
Procedure: It was investigated whether either PD-1 or p38 signalling pathways contributed to the decreased proliferative activity of EMRA CD8^+ T cells. The four CD45RA/CD27 defined T cell subsets were isolated and then stimulated with anti-CD3 antibody and irradiated autologous APCs in the presence of either 10 μg/ml PDL1/2 blocking antibodies, 500 nM BIRB796 or both inhibitors together. Proliferative activity was determined by staining with Ki67 antibody. Representative histograms for the EMRA subset with and without the inhibitors is shown in FIG. 4A, while pooled results from all four subsets from 4 separate donors is shown in FIG. 4B.
PBMCs or sorted CD8^+ T cells were stimulated with 0.5 μg/ml plate coated anti-CD3 (OKT3) for 4 days and proliferation was assessed by staining for the nuclear antigen Ki67 that is expressed by cells at all stages of the cell cycle.
Signalling through PD-1 on purified total CD8^+ and CD27/CD45RA defined CD8^+ subsets was blocked by adding 10 μg/ml each of anti-PD-L1 (29E.2A3.C6) and anti-PD-L2 (24F.10C12.G12), or 10 μg/ml each of IgG2a (Mg2a-53) or IgG2b (MPC-11) isotype control antibodies (Abcam) at the start of the 4 day stimulation period with anti-CD3 (purified OKT3, 0.5 μg/ml) and irradiated APCs. The p38 inhibitor BIRB796 was added to the 4 day cultures at a final concentration of 500 nM and 0.1% DMSO was used as control.

## Cc1ccc(-n2nc(C(C)(C)C)cc2NC(=O)Nc2ccc(OCCN3CCOCC3)c3ccccc23)cc1 [BIRB796]
[1]; CD45RA+CD27− (EMRA) CD8+ population, 500 nM BIRB796, 10 μg/ml anti-PDL1/2, p<0.05, 4 donors
  telomerase activity: significant increase
[1]; N, CM and EM CD8+ T cells, p38 signalling blocked (500 nM BIRB796), results not significant
  telomerase activity: trend towards increased telomerase activity
[2]
  proliferative activity (Ki67 staining): increased proliferative activity
